Test results reported in US20240368174A1, “Antiviral Heterocyclic Compounds” (Enanta Pharmaceuticals, Inc., priority 2023, published 2024).
pEC50: −log10 of the molar value.

Tests used:
[1] = tested on: genotype A, “Long” strain RSV; assay: RSV-A assay (CPE, ATPlite readout in Hep-2 cells); type: cell-based, Human respiratory syncytial virus; conditions: human respiratory syncytial virus, activity class
Outline: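 Hep-2 cells (8,000/well) were treated with 2-fold serial compound dilutions in duplicate and infected with RSV at MOI 0.1. After 5 days, protection from cytopathic effect was measured as cell viability by ATPlite luminescence, and EC50 values were derived.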

[2] = tested on: HMPV clinical isolate A2 strain TN 94-49; assay: HMPV antiviral assay, Method 1 (LLC-MK2 cells, ATP-Lite); type: cell-based; conditions: human metapneumovirus, hMPV A2 TN/94-49, LLC-MK2 cells
Outline: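 EC50 derived by four-parameter logistic fit of percent cell health, measured as ATP-Lite luminescence after 7 days at 37° C, 5% CO2. Compounds tested as 10-point 2.5-fold dilutions starting at 2 μM against TN 94-49 virus (MOI 0.005) in LLC-MK2 cells seeded at 5,000/well, infection medium containing 2 μg/mL TPCK-trypsin, serum-free.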

[3] = tested on: HMPV clinical isolate A2 strain TN 94-49; assay: HMPV antiviral assay, Method 2 (LLC-MK2 cells with CP-100-356, ATP-Lite); type: cell-based; conditions: human metapneumovirus, 168 h; hMPV A2 TN/94-49, LLC-MK2 cells with 4 μM CP-100-356, 7 days, ATP-Lite
Outline: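 EC50 comes from a four-parameter fit of percent cell viability (ATP-Lite, normalized to virus-only and cell-only wells) after 7 days at 37 °C. Infection used HMPV A2 TN 94-49 at MOI 0.16 in LLC-MK2 cells, with 2 μM P-gp inhibitor CP-100-356 and 2 μg/mL TPCK-trypsin final; dose range 200 nM top, 2.5-fold, 10 points, duplicate.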

Structure (SMILES)	pEC50 [1]	pEC50 [2]	pEC50 [3]
COc1cc(C(=O)NC[C@@](O)(c2ccc(F)cc2)c2cc3c(c(-c4ccc5c(c4Cl)OC(F)(F)O5)n2)OC[C@]3(C)C(N)=O)cc2cn(C3CC3)nc12 [Example 25]	> 6.70	> 6.30	–
COc1cc(C(=O)NC[C@](O)(c2cc3c(c(-n4ncc5c(F)cccc54)n2)OC[C@]3(C)C(N)=O)C2CC2)cc2oc(C3CC3)nc12 [Example 622]	> 6.70	–	> 6.70
COc1cc(C(=O)NC[C@@](O)(c2ccccc2)c2cc3c(c(-n4ncc5c(F)cccc54)n2)OC[C@]3(C)C(N)=O)cc2cn(C3CC3)nc12 [Example 628]	> 6.70	–	> 6.70
COc1cc(C(=O)NC[C@@](O)(c2ccccc2)c2cc3c(c(-n4ncc5c(F)cccc54)n2)OC[C@]3(C)C(N)=O)cc2cn(C3(F)CC3)nc12 [Example 629]	> 6.70	–	> 6.70
COc1cc(C(=O)NC[C@@](O)(c2ccccc2)c2cc3c(c(-n4ncc5c(F)cccc54)n2)OC[C@]3(C)C(N)=O)cc2cc(C3CC3)nn12 [Example 630]	> 6.70	–	> 6.70
COc1cc(C(=O)NC[C@@](O)(c2ccccc2)c2cc3c(c(-n4ncc5c(F)cccc54)n2)OC[C@]3(C)C(N)=O)cc2oc(C3CC3)nc12 [Example 631]	> 6.70	–	> 6.70
COc1cc(C(=O)NC[C@](O)(c2cc3c(c(-c4cc(C(F)(F)F)ncc4F)n2)OC[C@]3(C)C(N)=O)C2CC2)cc2cc(C3CC3)nn12 [Example 661]	> 6.70	–	> 6.70
COc1cc(C(=O)NC[C@](O)(c2cc3c(c(-c4cc(C(F)(F)F)ncc4F)n2)OC[C@]3(C)C(N)=O)C2CC2)cn2cc(C3CC3)nc12 [Example 662]	> 6.70	–	> 6.70
COc1cc(C(=O)NC[C@](O)(c2cc3c(c(-c4cc(C(F)(F)F)ncc4F)n2)OC[C@]3(C)C(N)=O)C2(F)CC2)cc2oc(C3CC3)nc12 [Example 670]	> 6.70	–	> 6.70
C[C@]1(C(N)=O)COc2c1cc([C@@](O)(CNC(=O)c1cc(Cl)c3nn(C4CC4)cc3c1)C1(F)CC1)nc2-c1cc(C(F)(F)F)ncc1F [Example 671]	> 6.70	–	> 6.70
C[C@]1(C(N)=O)COc2c1cc([C@@](O)(CNC(=O)c1cc(OCCO)c3nn(C4CC4)cc3c1)C1CC1)nc2-c1ccc2c(c1Cl)OC(F)(F)O2 [Example 681]	> 6.70	–	> 6.70
COc1cc(C(=O)NC[C@](O)(c2cc3c(c(-n4ccc5c(F)cccc54)n2)OC[C@]3(C)C(N)=O)C2(F)CC2)cc2cn(C(F)F)nc12 [Example 688]	> 6.70	–	> 6.70
COc1cc(C(=O)NC[C@](O)(c2cc3c(c(-n4ccc5c(F)cccc54)n2)OC[C@]3(C)C(N)=O)C2(F)CC2)cc2cn(C3(F)CC3)nc12 [Example 689]	> 6.70	–	> 6.70
COc1cc(C(=O)NC[C@](O)(c2cc3c(c(-n4ccc5c(F)cccc54)n2)OC[C@]3(C)C(N)=O)C2(F)CC2)cn2cc(C3CC3)nc12 [Example 690]	> 6.70	–	> 6.70
COc1cc(C(=O)NC[C@](O)(c2cc3c(c(-c4ccnc(C5CC5)c4Cl)n2)OC[C@]3(C)C(N)=O)C2CC2)cc2cn(C3CC3)nc12 [Example 721]	> 6.70	–	> 6.70
COc1cc(C(=O)NC[C@](O)(c2cc3c(c(-c4cncc(OC(F)F)c4Cl)n2)OC[C@]3(C)C(N)=O)C2CC2)cc2cn(C(F)F)nc12 [Example 742]	> 6.70	–	> 6.70
COc1nccc(-c2nc([C@@](O)(CNC(=O)c3cc(OC)c4nc(C5CC5)oc4c3)C3CC3)cc3c2OC[C@]3(C)C(N)=O)c1Cl [Example 745]	> 6.70	–	> 6.70
COc1cc(C(=O)NC[C@](O)(c2cc3c(c(-c4ccnc(C(F)(F)F)c4Cl)n2)OC[C@]3(C)C(N)=O)C2CC2)cc2cn(C(F)F)nc12 [Example 758]	> 6.70	–	> 6.70
COc1cc(C(=O)NC[C@](O)(c2cc3c(c(-c4ccnc(C(F)(F)F)c4Cl)n2)OC[C@]3(C)C(N)=O)C2CC2)cc2cn(C3(F)CC3)nc12 [Example 760]	> 6.70	–	> 6.70
COc1cc(C(=O)NC[C@](O)(c2cc3c(c(-c4ccnc(C(F)(F)F)c4Cl)n2)OC[C@]3(C)C(N)=O)C2CC2)cc2oc(C3CC3)nc12 [Example 762]	> 6.70	–	> 6.70
COc1cc(C(=O)NC[C@](O)(c2cc3c(c(-n4ccc5c(F)cccc54)n2)OC[C@]3(C)C(N)=O)C2CC2)cc2cn(C(F)F)nc12 [Example 776]	> 6.70	–	> 6.70
COc1cc(C(=O)NC[C@](O)(c2cc3c(c(-n4ccc5c(F)cccc54)n2)OC[C@]3(C)C(N)=O)C2CC2)cc2cn(C3(F)CC3)nc12 [Example 777]	> 6.70	–	> 6.70

Structure (SMILES)	pEC50 [1]	pEC50 [2]	pEC50 [3]
COc1cc(C(=O)NC[C@](O)(c2cc3c(c(-n4ccc5c(F)cccc54)n2)OC[C@]3(C)C(N)=O)C2CC2)cc2oc(C3CC3)nc12 [Example 778]	> 6.70	–	> 6.70
COc1cc(C(=O)NC[C@](O)(c2cc3c(c(-c4ccnc(C(F)F)c4Cl)n2)OC[C@]3(C)C(N)=O)C2CC2)cc2cn(C3CC3)nc12 [Example 780]	> 6.70	–	> 6.70
COc1cc(C(=O)NC[C@](O)(c2cc3c(c(-c4ccnc(C(F)(F)F)c4Cl)n2)OC[C@]3(C)C(N)=O)C(F)(F)F)cc2cn(C3CC3)nc12 [Example 783]	> 6.70	–	> 6.70
COc1cc(C(=O)NC[C@](O)(c2cc3c(c(-c4ccnc(C(F)F)c4Cl)n2)OC[C@]3(C)C(N)=O)C2CC2)cc2cn(C(F)F)nc12 [Example 785]	> 6.70	–	> 6.70
COc1cc(C(=O)NC[C@](O)(c2cc3c(c(-c4ccnc(C(F)F)c4Cl)n2)OC[C@]3(C)C(N)=O)C2CC2)cc2cn(C3(F)CC3)nc12 [Example 786]	> 6.70	–	> 6.70
COc1cc(C(=O)NC[C@](O)(c2cc3c(c(-c4ccnc(C(F)F)c4Cl)n2)OC[C@]3(C)C(N)=O)C2CC2)cc2oc(C3CC3)nc12 [Example 787]	> 6.70	–	> 6.70
COc1nccc(-c2nc([C@@](O)(CNC(=O)c3cc(OC)c4nn(C(F)F)cc4c3)C3CC3)cc3c2OC[C@]3(C)C(N)=O)c1Cl [Example 788]	> 6.70	–	> 6.70
COc1nccc(-c2nc([C@@](O)(CNC(=O)c3cc(OC)c4nn(C5(F)CC5)cc4c3)C3CC3)cc3c2OC[C@]3(C)C(N)=O)c1Cl [Example 789]	> 6.70	–	> 6.70
COc1cc(C(=O)NC[C@](O)(c2cc3c(c(-c4ccnc(C(F)(F)F)c4F)n2)OC[C@]3(C)C(N)=O)C2CC2)cc2cn(C3CC3)nc12 [Example 794]	> 6.70	–	> 6.70
COc1cc(C(=O)NC[C@](O)(c2cc3c(c(-c4ccnc(C(F)F)c4Cl)n2)OC[C@]3(C)C(N)=O)C(F)(F)F)cc2cn(C3CC3)nc12 [Example 795]	> 6.70	–	> 6.70
COc1nccc(-c2nc([C@@](O)(CNC(=O)c3cc(OC)c4nn(C5CC5)cc4c3)C(F)(F)F)cc3c2OC[C@]3(C)C(N)=O)c1Cl [Example 796]	> 6.70	–	> 6.70
COc1cc(C(=O)NC[C@](O)(c2cc3c(c(-c4ccnc(C(F)(F)F)c4F)n2)OC[C@]3(C)C(N)=O)C2CC2)cc2cn(C3(F)CC3)nc12 [Example 800]	> 6.70	–	> 6.70
COC1=CC(C(=O)NC[C@](O)(c2cc3c(c(-c4ccnc(C(F)(F)F)c4F)n2)OC[C@]3(C)C(N)=O)C2CC2)=CC2OC(C3CC3)=NC12 (some centres unmarked) [Example 801]	> 6.70	–	> 6.70
COc1cc(C(=O)NC[C@](O)(c2cc3c(c(-n4ncc5c(F)cccc54)n2)OC[C@]3(C)C(N)=O)C2CC2)cc2cn(C3CC3)nc12 [Example 820]	> 6.70	–	> 6.70
COc1cc(C(=O)NC[C@](O)(c2cc3c(c(-n4ncc5cc(F)ccc54)n2)OC[C@]3(C)C(N)=O)C2CC2)cc2cn(C3CC3)nc12 [Example 821]	> 6.70	–	> 6.70
COc1cc(C(=O)NC[C@](O)(c2cc3c(c(-c4ccn5nccc5c4Cl)n2)OC[C@]3(C)C(N)=O)C2CC2)cc2cn(C3CC3)nc12 [Example 824]	> 6.70	–	> 6.70
COc1cc(C(=O)NC[C@](O)(c2cc3c(c(-n4ccc5c(F)cccc54)n2)OC[C@]3(C)C(N)=O)C(F)(F)F)cc2cn(C3CC3)nc12 [Example 851]	> 6.70	–	> 6.70
COc1cc(C(=O)NC[C@](O)(c2cc3c(c(-n4ccc5cc(F)ccc54)n2)OC[C@]3(C)C(N)=O)C(F)(F)F)cc2cn(C3CC3)nc12 [Example 852]	> 6.70	–	> 6.70
COc1cc(C(=O)NC[C@](O)(c2cc3c(c(-n4ccc5c(F)cccc54)n2)OC[C@]3(C)C(N)=O)C2(F)CC2)cc2cn(C3CC3)nc12 [Example 861]	> 6.70	–	> 6.70
COc1cc(C(=O)NC[C@](O)(c2cc3c(c(-n4ccc5c(OC(F)F)cccc54)n2)OC[C@]3(C)C(N)=O)C2CC2)cc2cn(C3CC3)nc12 [Example 864]	> 6.70	–	> 6.70
COc1cc(C(=O)NC[C@](O)(c2cc3c(c(-n4ccc5c(F)cccc54)n2)OC[C@]3(C)C(N)=O)C2CC2)cn2cc(C3CC3)nc12 [Example 868]	> 6.70	–	> 6.70
